Measurements: the NIST ThermoML archive (doi:10.1021/je030127e)
Numbers after ± are expanded uncertainties.

Experiment: xn = mol fraction of the nth substance listed
Settings: 101.3 kPa, Liquid; for viscosity: Capillary tube (Ostwald / Ubbelohde) method

CCCCN [1-butanamine] + COCCO
viscosity (293.15 K, x2 = 0): 0.525 ± 0.005 mPa·s
viscosity (293.15 K, x2 = 0.0501): 0.566 ± 0.005 mPa·s
viscosity (293.15 K, x2 = 0.0999): 0.613 ± 0.006 mPa·s
viscosity (293.15 K, x2 = 0.1508): 0.669 ± 0.006 mPa·s
viscosity (293.15 K, x2 = 0.2001): 0.731 ± 0.006 mPa·s
viscosity (293.15 K, x2 = 0.2509): 0.801 ± 0.007 mPa·s
viscosity (293.15 K, x2 = 0.3): 0.879 ± 0.007 mPa·s
viscosity (293.15 K, x2 = 0.3498): 0.964 ± 0.008 mPa·s
viscosity (293.15 K, x2 = 0.4001): 1.053 ± 0.008 mPa·s
viscosity (293.15 K, x2 = 0.4511): 1.146 ± 0.009 mPa·s
viscosity (293.15 K, x2 = 0.5001): 1.238 ± 0.01 mPa·s
viscosity (293.15 K, x2 = 0.5496): 1.327 ± 0.01 mPa·s
viscosity (293.15 K, x2 = 0.5997): 1.412 ± 0.011 mPa·s
viscosity (293.15 K, x2 = 0.6503): 1.488 ± 0.012 mPa·s
viscosity (293.15 K, x2 = 0.7): 1.552 ± 0.012 mPa·s
viscosity (293.15 K, x2 = 0.7492): 1.604 ± 0.012 mPa·s
viscosity (293.15 K, x2 = 0.7999): 1.643 ± 0.013 mPa·s
viscosity (293.15 K, x2 = 0.8491): 1.671 ± 0.013 mPa·s
viscosity (293.15 K, x2 = 0.8993): 1.686 ± 0.013 mPa·s
viscosity (293.15 K, x2 = 0.95): 1.696 ± 0.013 mPa·s
viscosity (298.15 K, x2 = 0): 0.496 ± 0.005 mPa·s
viscosity (298.15 K, x2 = 0.0501): 0.536 ± 0.005 mPa·s
viscosity (298.15 K, x2 = 0.0999): 0.578 ± 0.006 mPa·s
viscosity (298.15 K, x2 = 0.1508): 0.625 ± 0.006 mPa·s
viscosity (298.15 K, x2 = 0.2001): 0.68 ± 0.006 mPa·s
viscosity (298.15 K, x2 = 0.2509): 0.743 ± 0.006 mPa·s
viscosity (298.15 K, x2 = 0.3): 0.81 ± 0.007 mPa·s
viscosity (298.15 K, x2 = 0.3498): 0.886 ± 0.007 mPa·s
viscosity (298.15 K, x2 = 0.4001): 0.966 ± 0.008 mPa·s
viscosity (298.15 K, x2 = 0.4511): 1.049 ± 0.008 mPa·s
viscosity (298.15 K, x2 = 0.5001): 1.133 ± 0.009 mPa·s
viscosity (298.15 K, x2 = 0.5496): 1.214 ± 0.01 mPa·s
viscosity (298.15 K, x2 = 0.5997): 1.29 ± 0.01 mPa·s
viscosity (298.15 K, x2 = 0.6503): 1.358 ± 0.011 mPa·s
viscosity (298.15 K, x2 = 0.7): 1.415 ± 0.011 mPa·s
viscosity (298.15 K, x2 = 0.7492): 1.461 ± 0.011 mPa·s
viscosity (298.15 K, x2 = 0.7999): 1.493 ± 0.012 mPa·s
viscosity (298.15 K, x2 = 0.8491): 1.516 ± 0.012 mPa·s
viscosity (298.15 K, x2 = 0.8993): 1.525 ± 0.012 mPa·s
viscosity (298.15 K, x2 = 0.95): 1.533 ± 0.012 mPa·s
speed of sound (298.15 K, x2 = 0): 1251.6 ± 1.1 m/s
speed of sound (298.15 K, x2 = 0.0501): 1257 ± 1.1 m/s
speed of sound (298.15 K, x2 = 0.0999): 1262.3 ± 1.1 m/s
speed of sound (298.15 K, x2 = 0.1508): 1267.7 ± 1.1 m/s
speed of sound (298.15 K, x2 = 0.2001): 1273.1 ± 1.1 m/s
speed of sound (298.15 K, x2 = 0.2509): 1278.4 ± 1.1 m/s
speed of sound (298.15 K, x2 = 0.3): 1283.6 ± 1.1 m/s
speed of sound (298.15 K, x2 = 0.3498): 1288.8 ± 1.1 m/s
speed of sound (298.15 K, x2 = 0.4001): 1294 ± 1.1 m/s
speed of sound (298.15 K, x2 = 0.4511): 1299.1 ± 1.1 m/s
speed of sound (298.15 K, x2 = 0.5001): 1304 ± 1.1 m/s
speed of sound (298.15 K, x2 = 0.5496): 1308.8 ± 1.1 m/s
speed of sound (298.15 K, x2 = 0.5997): 1313.5 ± 1.1 m/s
speed of sound (298.15 K, x2 = 0.6503): 1318.1 ± 1.1 m/s
speed of sound (298.15 K, x2 = 0.7): 1322.4 ± 1.1 m/s
speed of sound (298.15 K, x2 = 0.7492): 1326.6 ± 1.1 m/s
speed of sound (298.15 K, x2 = 0.7999): 1330.7 ± 1.1 m/s
speed of sound (298.15 K, x2 = 0.8491): 1334.5 ± 1.1 m/s
speed of sound (298.15 K, x2 = 0.8993): 1338 ± 1.1 m/s
speed of sound (298.15 K, x2 = 0.95): 1341.4 ± 1.1 m/s
viscosity (303.15 K, x2 = 0): 0.467 ± 0.005 mPa·s
viscosity (303.15 K, x2 = 0.0501): 0.504 ± 0.005 mPa·s
viscosity (303.15 K, x2 = 0.0999): 0.544 ± 0.005 mPa·s
viscosity (303.15 K, x2 = 0.1508): 0.588 ± 0.006 mPa·s
viscosity (303.15 K, x2 = 0.2001): 0.636 ± 0.006 mPa·s
viscosity (303.15 K, x2 = 0.2509): 0.691 ± 0.006 mPa·s
viscosity (303.15 K, x2 = 0.3): 0.75 ± 0.007 mPa·s
viscosity (303.15 K, x2 = 0.3498): 0.815 ± 0.007 mPa·s
viscosity (303.15 K, x2 = 0.4001): 0.885 ± 0.007 mPa·s
viscosity (303.15 K, x2 = 0.4511): 0.957 ± 0.008 mPa·s
viscosity (303.15 K, x2 = 0.5001): 1.031 ± 0.008 mPa·s
viscosity (303.15 K, x2 = 0.5496): 1.103 ± 0.009 mPa·s
viscosity (303.15 K, x2 = 0.5997): 1.17 ± 0.009 mPa·s
viscosity (303.15 K, x2 = 0.6503): 1.232 ± 0.01 mPa·s
viscosity (303.15 K, x2 = 0.7): 1.286 ± 0.01 mPa·s
viscosity (303.15 K, x2 = 0.7492): 1.327 ± 0.01 mPa·s
viscosity (303.15 K, x2 = 0.7999): 1.359 ± 0.011 mPa·s
viscosity (303.15 K, x2 = 0.8491): 1.379 ± 0.011 mPa·s
viscosity (303.15 K, x2 = 0.8993): 1.389 ± 0.011 mPa·s
viscosity (303.15 K, x2 = 0.95): 1.395 ± 0.011 mPa·s
